The source of these data is patent US20230398125A1, “TREATING HEPATITIS” (Albireo AB, priority 2022, published 2023).

SMILES strings stand for the structures.

For data set [1], the target named is T1, Human NTCP (Homo sapiens, UniProt Q14973).
T1 construct: expressed in transfected cells; peptide purchased from Pharmaron
T1 sequence (Q14973 1-349): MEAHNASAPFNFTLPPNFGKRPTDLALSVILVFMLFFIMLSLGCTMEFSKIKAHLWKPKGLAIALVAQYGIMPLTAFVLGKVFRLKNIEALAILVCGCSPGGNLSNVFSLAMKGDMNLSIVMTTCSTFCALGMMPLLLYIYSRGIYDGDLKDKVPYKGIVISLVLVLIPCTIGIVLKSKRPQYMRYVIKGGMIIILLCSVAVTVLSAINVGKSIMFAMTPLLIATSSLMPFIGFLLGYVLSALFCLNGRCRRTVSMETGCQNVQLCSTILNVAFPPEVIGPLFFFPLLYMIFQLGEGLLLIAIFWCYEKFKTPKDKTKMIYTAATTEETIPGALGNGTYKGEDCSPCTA
Nature of the data set: [3H]TC transport in NTCP-HEK293 cells. It is filed as cell-based. Conditions: read-out: IC50 [3H]taurocholic acid uptake. The protocol: (§1) Human embryonic kidney (HEK293) cells were stably transfected with human NTCP, C-terminally tagged with the FLAG epitope (here referred to as NTCP-HEK293 cells). Cells were maintained at 37° C., 5% CO2 and 95% humidity in DMEM/F-12 medium (Thermo Fisher Scientific, Waltham, Mass., USA) supplemented with 10% fetal calf serum (Sigma-Aldrich, St. Louis, Mo., USA), 4 mM L-glutamine, and penicillin/streptomycin. HepG2 cells stably transfected with NTCP-FLAG (here referred to as NTCP-HepG2) were cultured under the same conditions in DMEM with all supplements listed above, except for L-glutamine. […]
(§2) Bile acid transport measurements were performed in the NTCP-HEK293 cells with tritium-labelled taurocholic acid (here referred to as [^3H]TC) (20 Ci/mmol, 0.09 mCi/mL, Perkin Elmer, Waltham, USA). […] Cell-associated radioactivity of [^3H]TC or [^3H]preS1 was quantified by liquid scintillation counting in a Packard Microplate Scintillation Counter TopCount NXT (Packard Instrument Company, Meriden, USA). Transport rates and [^3H]preS1 binding were determined in counts per minute (cpm). The mean of the 0% control was subtracted and the net [^3H]TC transport rates and net [^3H]preS1 binding rates, respectively, were expressed as % of control. IC50 values were calculated from quadruplicate determinations by GraphPad Prism 6 (GraphPad, San Diego, Calif., USA). […]

Data set [2] concerns the target T1, Human NTCP. Nature of the data set: [3H]preS1 peptide binding to NTCP-HEK293 cells. The protocol:
as §1, §2

Data set [3] is described as follows: Body weight, mortality and observations in HBV-infected PXB mice. In kind it is in vivo. Conditions: 10 and 30 mg/kg.

For `CCCCC1CN(c2ccccc2)c2cc(SC)c(O/C=C(\F)C(=O)O)cc2S(=O)(=O)N1C` (stereo not drawn) [Compound 1, (Z)-3-((3-butyl-2-methyl-7-(methylthio)-1,1-dioxido-5-phenyl-2,3,4,5-tetrahydro-1,2,5-benzothiadiazepin-8-yl)oxy)-2-fluoroacrylic acid], the IC50 on Human NTCP [1] worked out at 0.186 µM; on Human NTCP [2], 0.149 µM. Moreover, in data set [3], the “observations related to treatment” value is given as “No noteworthy observations”.
